Where two headings read alike, the source gives them in different places.
Key:
[1] = test system: Clinical isolates that have been adapted to cause infection in mice; assay: In vivo antibacterial protection, 7 day survival of infected mice; design: species or system mice strain CD-1
Text: In Vivo Antibacterial Protection
Female mice strain CD-1, approximately 18-22 grams, were received from Charles River Laboratories and quarantined 7 days prior to use. In addition, mice may be rendered neutropenic using cytoxan.
Clinical isolates that have been adapted to cause infection in mice, are used in the experiment, including infections with strains of E. coli, K. pneumoniae, M. morganii, E. cloacae, S. marcescens, C. freundii, staphylococci, streptococci, P. aeruginosa and N. gonorrhoeae.
Mice are challenged by injecting 0.5 ml intraperitoneally or 0.05 ml intranasally of a predetermined bacterial inoculum suspended in broth, saline or hog gastric mucin (supplemented with dried bovine hemoglobin for N. gonorrhoeae). […] Antibacterial doses (dose concentration prepared by two fold serial dilutions of the antibiotic) are dissolved or suspended in 0.2% aqueous agar or methocel, phosphate buffered saline or an adjuvant are administered orally, subcutaneously or intravenously in the following manner: • a) Orally or subcutaneously: Dose volume of 0.5 ml administered ½ hr after infection. A second dose may be administered 3 hr. after infection for treatment of infections with more virulent organisms. • b) Intravenously: Dose volume of 0.2 ml, administered ½ hr. after infection. For the treatment of infections with more virulent organisms, more doses, up to 48 hr may be administered. (Intravenous dosing will not exceed 3 doses/24 hr period.) • c) Oral pretreatment: Under special circumstances, the pH of the stomach needs to be adjusted in order to increase the gastric stability of the antibiotic. For this purpose, 0.5 ml of phosphate buffered saline (pH7.8, 0.06M) (or specific approved adjuvant) is administered orally ½ hr after infection, followed 5 minutes later by 0.5 ml of antibiotic (also orally) contained in phosphate buffered saline (pH7.8, 0.06M). Animal Species
A detailed explanation as to the number of animals needed for the determination of in vivo efficacy follows: • A) Novel antibiotics are tested at 5 different dose levels with 5 mice per dose level at each of three routes of administration (oral, subcutaneous and intravenous). […] This would require 25 mice/route with 3 routes/antibiotic or 75 mice per novel compound tested. One to two novel antibiotics will be tested per experiment (75-150 mice) • B) The effectiveness of the new compound must be compared to that of a standard, or antibiotic of known effectiveness. Known or previously tested antibiotics are tested at 5 dose levels with 5 mice per dose level by a single route of administration, for a total of 25 mice/antibiotic. Usually 3-6 antibiotics will be tested per experiment. (75-150 mice). • C) Untreated controls—In each of the above tests, untreated animals are infected with 3 different concentrations of bacterial inoculum with 10 mice per concentration (30 mice total in each and every test). These untreated controls are used to determine and maintain the infection level between 10-100 LD50s as required for test to test comparison and validity. Determination of Protective Effects of Antibacterial Agents:
The protective effects of the antibacterial agent(s) are measured by the survival of the infected untreated as compared to the treated animals. […] A census of survivors is taken twice daily and at that time dead as well as moribund animals are removed. […] The test is performed three times on separate days to provide a statistically valid number of animals and to minimize variation in test results on a day to day and test to test basis.

E. Cloacae GC1477 (Ampc) = assay: Antimicrobial susceptibility testing, microbroth dilution, piperacillin + inhibitor; format: cell-based; details: piperacillin combined with constant 4 ug/ml of inhibitor; 35° C. for 18 hours
Method: (§1) Antimicrobial susceptibility testing. The in vitro activities of the antibiotics were determined by the microbroth dilution method as recommended by the National Committee for Clinical Laboratory Standards (NCCLS). (NCCLS. 2000. Methods for Dilution Antimicrobial Susceptibility Tests for Bacteria That Grow Aerobically; Approved Standards: M7-A5, vol. 19. National Committe for Clinical Laboratory Standards, Villanova, Pa.). Mueller-Hinton II broth (MHBII) (BBL Cockeysville, Md.), was used for the testing procedure. Microtiter plates containing 50 μl per well of two-fold serial dilutions of piperacillin combined with a constant amount (4 ug/ml) of a B-lactamase inhibitor were inoculated with 50 μl of inoculum to yield the appropriate density (10^5 CFU/ml) in 100·I final volume. The plates were incubated for 18-22 hours at 35° C. in ambient air.

[2] = test system: S. Marcescens GC1781 Sme-1 + Ampc; assay: as above; format: cell-based; details: piperacillin combined with constant 4 ug/ml of inhibitor; 35° C. for 18 hours
Method: as §1

[3] = test system: P. aeruginos GC1764 (Ampc); assay: as above; format: cell-based; details: piperacillin combined with constant 4 ug/ml of inhibitor; 35° C. for 18 hours
Method: as §1

E. Coli GC2894 (Ampc) = assay: as above; format: cell-based; details: piperacillin combined with constant 4 ug/ml of inhibitor; 35° C. for 18 hours
Method: as §1, with “air. […] The MIC data obtained by the above said procedure are enlisted in Table 2.” for “air.”

E. Coli GC2920 (IRT-2) = assay: as above; format: cell-based; details: piperacillin combined with constant 4 ug/ml of inhibitor; 35° C. for 18 hours
Method: as §1, with “air. […] The MIC data obtained by the above said procedure are enlisted in Table 2.” for “air.”

E. Coli GC2847 (TEM-1) = assay: as above; format: cell-based; details: piperacillin combined with constant 4 ug/ml of inhibitor; 35° C. for 18 hours
Method: as §1, with “air. […] The MIC data obtained by the above said procedure are enlisted in Table 2.” for “air.”

E. Coli GC2844 = assay: as above; format: cell-based; details: piperacillin combined with constant 4 ug/ml of inhibitor; 35° C. for 18 hours
Method: as §1, with “air. […] The MIC data obtained by the above said procedure are enlisted in Table 2.” for “air.”

S. aureus GC2216 = assay: as above; format: cell-based; details: piperacillin combined with constant 4 ug/ml of inhibitor; 35° C. for 18 hours
Method: as §1, with “air. […] The MIC data obtained by the above said procedure are enlisted in Table 2.” for “air.”

E. Coli GC22033 = assay: as above; format: cell-based; details: piperacillin combined with constant 4 ug/ml of inhibitor; 35° C. for 18 hours
Method: as §1, with “air. […] The MIC data obtained by the above said procedure are enlisted in Table 2.” for “air.”

class C enzyme AmpC = class C enzyme AmpC (Enterobacter cloacae, UniProt P05364); assay: biochemical; design: species or system Enterobacter cloaca; details: enzyme 2.1 nM; 10 minutes preincubation at 25° C.; nitrocefin 50 μg/ml; pH 7.0; read-out: IC50 (nM) Class C AmpC
Method: (§2) IC50 Determination for the Penem Inhibitor
(§3) β-Lactamase inhibitory activity of the penem inhibitors was determined spectrophotometrically as described by Bush et al., [Bush, K., Macalintal, C., Rasmussen, B. A., Lee, V. and Yang, Y. Antimicrobial Agents and Chemotherapy 1993, 37, 851]. Homogeneously purified class A β-lactamases TEM-1 from E. coli and Imi-1 from Enterobacter cloacae, class B enzyme CcrA from Bacteroides fragilis and class C enzyme AmpC from Enterobacter cloaca were employed in the assay. The enzyme concentrations for TEM-1, Imi-1, CcrA and AmpC were 4.3, 7.1, 1.2 and 2.1 nM, respectively. A wide range of inhibitor concentrations were prepared in 50 mM PO4, pH 7.0 to include the possible IC50 values. The substrate used to initiate the enzyme reaction was nitrocefin at 50 μg/ml in the same buffer as the inhibitor. Initially the enzyme and inhibitor (20 μl each) were preincubated for 10 minutes at 25° C. prior to the addition of 160 μl volume of nitrocefin. Initial rates of hydrolysis were monitored for 5 minutes at 495 nm using a Molecular Devices Spectra Max 250 with kinetic protocol of SoftMax Program. Readings from the Spectra Max 250 were exported and transferred to Microsoft Excel. The percent of inhibition of each inhibitor concentration was calculated based on the control enzyme activity. The inhibitor concentration that caused a 50% reduction in the enzymatic activity (IC50) was determined graphically.

[4] = molecular target: class A β-lactamase TEM-1 (Escherichia coli, UniProt P62593); assay: IC50 determination, β-lactamase inhibition (nitrocefin, spectrophotometric); format: biochemical, E. coli; details: enzyme 4.3 nM; 10 minutes preincubation at 25° C.; nitrocefin 50 μg/ml; pH 7.0
Method: as §2, §3

class B enzyme CcrA = class B enzyme CcrA (Bacteroides fragilis, UniProt P25910); assay: as above; format: biochemical; details: enzyme 1.2 nM; 10 minutes preincubation at 25° C.; nitrocefin 50 μg/ml; pH 7.0; read-out: IC50 (nM) Class B Ccr
Method: as §2, §3

[5] = molecular target: class A β-lactamase Imi-1 (Enterobacter cloacae, UniProt Q46991); assay: as above; format: biochemical; details: enzyme 7.1 nM; 10 minutes preincubation at 25° C.; nitrocefin 50 μg/ml; pH 7.0; read-out: IC50 (nM) Class A Imi
Method: as §2, §3

[6] = Mus musculus, 168 h, Ratio of Piperacillin vs. Inhibitor 4:1, read-out: ED50
[7] = Ratio of Piperacillin vs. Inhibitor not given

Chain of class C enzyme AmpC (P05364 21-381): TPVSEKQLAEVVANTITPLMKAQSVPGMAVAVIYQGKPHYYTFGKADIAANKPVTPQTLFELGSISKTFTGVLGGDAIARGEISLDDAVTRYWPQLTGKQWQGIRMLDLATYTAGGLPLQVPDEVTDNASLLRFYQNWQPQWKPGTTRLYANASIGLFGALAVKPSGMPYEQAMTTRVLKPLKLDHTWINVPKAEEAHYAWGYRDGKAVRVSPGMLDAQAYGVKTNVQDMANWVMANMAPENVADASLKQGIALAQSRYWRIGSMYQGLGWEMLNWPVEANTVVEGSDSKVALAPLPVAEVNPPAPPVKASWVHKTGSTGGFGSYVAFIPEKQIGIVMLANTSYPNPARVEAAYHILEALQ
Chain of class B enzyme CcrA (P25910 19-249): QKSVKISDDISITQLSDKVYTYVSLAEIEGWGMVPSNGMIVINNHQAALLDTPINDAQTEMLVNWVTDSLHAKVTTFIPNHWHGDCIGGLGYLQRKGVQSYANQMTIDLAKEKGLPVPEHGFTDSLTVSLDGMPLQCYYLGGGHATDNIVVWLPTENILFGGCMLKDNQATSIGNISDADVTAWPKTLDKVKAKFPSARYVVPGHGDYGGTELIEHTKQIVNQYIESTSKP
Chain of class A β-lactamase Imi-1 (Q46991 28-292): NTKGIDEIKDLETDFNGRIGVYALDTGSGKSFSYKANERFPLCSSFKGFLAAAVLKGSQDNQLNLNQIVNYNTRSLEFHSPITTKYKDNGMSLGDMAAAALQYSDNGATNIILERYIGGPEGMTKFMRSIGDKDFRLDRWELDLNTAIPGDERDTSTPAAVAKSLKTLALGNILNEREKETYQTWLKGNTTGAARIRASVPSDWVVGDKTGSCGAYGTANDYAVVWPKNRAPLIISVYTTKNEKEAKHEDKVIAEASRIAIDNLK
Chain of class A β-lactamase TEM-1 (P62593 24-286 limits assumed): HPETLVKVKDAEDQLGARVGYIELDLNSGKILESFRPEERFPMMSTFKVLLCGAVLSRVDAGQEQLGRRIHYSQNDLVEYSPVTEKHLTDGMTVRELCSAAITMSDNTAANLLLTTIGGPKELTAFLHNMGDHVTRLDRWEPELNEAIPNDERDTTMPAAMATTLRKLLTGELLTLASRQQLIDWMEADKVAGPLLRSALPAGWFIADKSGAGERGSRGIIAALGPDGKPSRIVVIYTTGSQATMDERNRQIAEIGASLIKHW

Structure (SMILES) | ED50 ([1]; Ratio of Piperacillin vs. Inhibitor 4:1) | Minimal Inhibitory Concentration E. Cloacae GC1477 (Ampc) (E. Cloacae GC1477 (Ampc)) | Minimal Inhibitory Concentration S. Marcescens GC1781 Sme-1 + Ampc [2] | Minimal Inhibitory Concentration P. aeruginos GC1764 (Ampc) [3] | Minimal Inhibitory Concentration E. Coli GC2894 (Ampc) (E. Coli GC2894 (Ampc)) | Minimal Inhibitory Concentration E. Coli GC2920 (IRT-2) (E. Coli GC2920 (IRT-2)) | Minimal Inhibitory Concentration E. Coli GC2847 (TEM-1) (E. Coli GC2847 (TEM-1)) | Minimal Inhibitory Concentration E. Coli GC2844 (E. Coli GC2844) | Minimal Inhibitory Concentration S. aureus GC2216 (S. aureus GC2216) | Minimal Inhibitory Concentration E. Coli GC22033 (E. Coli GC22033) | IC50 (class C enzyme AmpC) | IC50 [4] | IC50 (class B enzyme CcrA) | IC50 [5] | ED50 [1, 6] | melting point | ED50 [1, 7]
COc1ccc(CN2CCc3sc(/C=C4/C(=O)N5C(C(=O)O)=CS[C@H]45)cc3C2)cc1 [Example 4] | 32 to 64 mg/kg | 64 µg/mL | 2 µg/mL | 32 µg/mL | 2 µg/mL | 2 µg/mL | 8 µg/mL | 2 µg/mL | 0.50 µg/mL | 2 µg/mL | – | – | – | – | – | – | –
O=C(O)C1=CS[C@@H]2/C(=C\c3cc4c(s3)CCN(C(=O)c3cccnc3)C4)C(=O)N12 [Example 22] | – | – | – | – | – | – | – | – | – | – | 11 nM | 6.1 nM | 110 nM | 42 nM | 128 mg/kg | 195 °C | –
CC(=O)N1CCc2sc(/C=C3/C(=O)N4C(C(=O)[O-])=CS[C@H]34)cc2C1.[Na+] (single isomer, unassigned) [Example 34] | – | >64 µg/mL | 2 µg/mL | 32 µg/mL | 32 µg/mL | 4 µg/mL | 32 µg/mL | 4 µg/mL | – | 2 µg/mL | – | – | – | – | – | – | 32 mg/kg
O=C([O-])C1=CS[C@@H]2/C(=C\c3cc4n(n3)CCCO4)C(=O)N12.[Na+] [Example 36, (5R)(6Z)-6-(6,7-5H-Dihydropyrazolo[5,1-b]oxazin-2-ylmethylene)-7-oxo-4-thia-1-azabicyclo[3.2.0]hept-2-ene-2-carboxylic acid, sodium salt] | – | 16 µg/mL | 1 µg/mL | 1 µg/mL | 2 µg/mL | 2 µg/mL | 4 µg/mL | 2 µg/mL | 0.06 µg/mL | 4 µg/mL | 4.5 nM | 6.3 nM | 140 nM | 413 nM | – | – | 90 mg/kg
O=C(O)C1=CS[C@@H]2/C(=C\c3cc4c(s3)CCN(C(=O)Cc3ccccc3)C4)C(=O)N12 [Example 23] | – | – | – | – | – | – | – | – | – | – | 7.8 nM | 4.6 nM | 140 nM | 40 nM | 128 mg/kg | 166 to 169 °C | –
